In paper PMC7038073, “Substituted Piperazines as Novel Potential Radioprotective Agents” (Molecules, 2020):
Where a name gives a salt, the structure may show the parent alone.

How the values were obtained:
BALB/c mice = assay: Survival of whole-body irradiated mice; type: in vivo; details: female BALB/c mice; for day post-irradiation of onset of lethal effect / decline in survival: i.p. at 50% of MTD 5 min before 7.15 Gy, non-treated control 10 days; for survival at day 30 post-irradiation: n = 10, i.p. at 50% of MTD 5 min before 7.15 Gy, control 40%
Procedure: To estimate the radioprotective effect on whole-body irradiated mice, compounds 4 (50 mg/kg), 5 (100 mg/kg), 6 (50 mg/kg), 7 (100 mg/kg), 8 (1000 mg/kg), and 10 (325 mg/kg) were injected (intraperitoneally, i.p.) 5 min before receiving 7.15 Gy of gamma radiation. These compounds were selected based on the cytotoxicity screening in vitro, and applied at a dose corresponding to 50% of the MTD in vivo. […] The follow-up period was 30 days.
Adult female BALB/c mice (21 ± 0.8 g) were used for all experiments (Velaz a.s., Prague, Czech Rep.). All the performed methods were in accordance with NIRS Guidelines for the Care and Use of Laboratory Animals and approved by the Committee for animal rights of the Ministry of Defence of the Czech Republic no. ČJ MO 255172/2019-684800. The mice, arranged in groups of 10 animals each, received a dose of 7.15 Gy from a ^60Co gamma source (Chisotron, Chirana, Czech Republic) at a dose rate of 1.04 Gy/min. Non-irradiated and non-treated control groups were included. Their survival and health status were checked on a daily basis for 30 days.
Compounds 4 (50 mg/kg), 5 (100 mg/kg), 6 (50 mg/kg), 7 (100 mg/kg), 8 (1000 mg/kg), and 10 (325 mg/kg) were selected and administered i.p. 5 min before irradiation. The doses were prepared from 100 mg/mL stock before each experiment.

[1] = Safe use evaluation in vivo (MTD, symptoms, blood biochemistry, histopathology); details: both sexes, mouse, in vivo, ip; BALB/c mice, i.p., two males and two females per group; read-out: MTD (maximum tolerated dose)
Text: Mild to moderate signs of intoxication could be observed once the MTD (maximum tolerated dose) was reached. In vivo, MTD is described as the highest dose of a given compound that can be administered before showing signs of toxicity (based on the same dose regimen or series) and whose excess would be expected to be fatal, yielding unreliable results. Therefore, a staged approach (including core and intermediate dose levels) has become a suitable strategy in this regard.
The symptoms described in Tables S1 (in Supplementary Materials) and S2 (in Supplementary Materials) diminished spontaneously within 2 h. After observing these symptoms, MTD thresholds were set at 100, 200, 100, 200, 2000, and 650 mg/kg for compounds 4, 5, 6, 7, 8, and 10, respectively. Animals receiving MTD were further examined by necropsy 48 h after administration. Plasma (reflecting biochemical changes in blood), intestine with mesentery (site of administration), and liver and kidney (elimination organs) were collected to evaluate the toxic potential of the tested compounds. For evaluation of the impact of the compounds on organ function, we performed blood biochemistry test 48 h after administration. The test focused on seven important indicators: glucose and amylase for normal function of pancreas, alanine aminotransferase (ALT), aspartate aminotransferase (AST), and alkaline phosphatase (ALP) for the normal function of liver, and urea and creatinine for the normal function of kidneys. […] According to Thoolen et al., focal necrosis can be occasionally seen in untreated rodents and therefore is not pathognomonic of hepatotoxicity, which is consistent with our findings.
Both male and female BALB/c mice (Velaz s r.o., Prague, Czech Republic) with an average weight of 21 ± 0.8 g and 21 ± 0.8 g, respectively, were selected for the safe use evaluation in vivo. The mice were housed in environmentally controlled breeding units (Faculty of Military Health Sciences vivarium; temperature 21 ± 1 °C, 12/12 h light/dark cycle) with access to food (Cerea corp., Pardubice, Czech Republic) and water ad libitum. The acclimatization period of the mice was at least 10 days before each experiment. All experimental procedures and protocols were reviewed and approved by the Ethics Committee of the Faculty of Military Health Sciences in Hradec Kralove, University of Defence in Brno. Compounds 2, 3, 4, 5, 6, 7, 8, 9, and 10 were dissolved in physiological saline solution (B. Braun Melsungen AG, Melsungen, Germany) and injected intraperitoneally (i.p.) into the corresponding mouse groups, which were composed of two males and two females. Several doses were administered to determine the maximum tolerated dose (MTD), which was assessed by close observation for signs of toxicity within the first two hours after administration of the compounds, and then regularly over the following 48 h. The observed symptoms were registered according to the laboratory Animal Science Association UK guidelines (for a detailed description, see [36]. After 48 h, the surviving animals were euthanized with CO2 and evaluated by basic macroscopic necropsy. Venous blood was collected into heparinized tubes (Scanlab Systems, Prague, Czech Republic) and the plasma was separated in a U-320R centrifuge (Boeco, Hamburg, Germany) to further evaluate the toxic potential of the tested compounds. The concentrations of glucose, urea, and creatinine and the levels of alanine aminotransferase (ALT), aspartate aminotransferase (AST), alkaline phosphatase (ALP), and amylase were evaluated in a qualified biochemical laboratory of the University Hospital Hradec Kralove (Hradec Kralove, Czech Republic). Additionally, intestine, liver, and kidney samples were collected for histopathologic examination. […]

[2] = WST-1 cytotoxicity test, Jurkat; type: cell-based; details: human, Jurkat cells, 48 h, WST-1, mean ± SD of three experiments, read-out: relative viability (%) compared to untreated control
Procedure: In this study, the cytotoxic effects of nine new compounds (2, 3, 4, 5, 6, 7, 8, 9, 10) were tested on 10 human cell lines (nine cancer and one non-cancer cell line). The cell lines were treated with each compound at concentrations of 10 µM and 100 µM for 48 h. The proliferation capacity of the treated cells was determined by WST-1 test and compared against the proliferation rate of the untreated control cells (100%).
The cell lines Jurkat, MOLT-4, A2780, A549, HT-29, PANC-1, HeLa, MCF-7, SAOS-2, and MRC-5 (all purchased from Sigma Aldrich, Czech Republic) were included in this study. All cell lines were maintained according to the provider’s guidelines, and plated and treated in 96-well plates (500 to 30 × 10^3 cells per well). The tested compounds 2, 3, 4, 5, 6, 7, 8, 9, and 10 were dissolved in 0.1% DMSO and kept in 10 mM stock solutions. Before use, the stock solution was diluted in culture media at ratios of 1:100 and 1:1000. The studied cell lines were treated with the compounds 2, 3, 4, 5, 6, 7, 8, 9, and 10 at concentrations of 10 and 100 µM for 48 h. Control cells were tested in culture media with and without DMSO (0.1%). The cells were also treated with 1 µM doxorubicin as a cytotoxicity control.
The WST-1 (2-(4-iodophenyl)-3-(4-nitrophenyl)-5-(2,4-disulfophenyl)-2H-tetrazolium, monosodium salt) test (Roche, Mannheim, Germany) was used according to the manufacturer’s protocol to determine cell viability in all 10 cell lines 48 h after treatment with the tested compounds. The cells were analyzed in a Tecan Infinite M200 spectrometer (Tecan Group, Männedorf, Switzerland) at 440 nm.

| Compound | day post-irradiation of onset of lethal effect / decline in survival (BALB/c mice) [days] | survival at day 30 post-irradiation (BALB/c mice) [%] | MTD at 48 h [1] [mg/kg] | viability at 48 h, 10 µM [2] [%] | viability at 48 h, 100 µM [2] [%] |
| --- | --- | --- | --- | --- | --- |
| OCCN1CCN(CC(O)CN2CCN(CCO)CC2)CC1 [Compound 8, 1.3-bis [4-(2-hydroxyethyl)piperazin-1-yl)propan-2-ol tetrahydrochloride] | > 12 | 70 | 2000 | 103 ± 5 | 96 ± 13 |
| Cl.Cl.Cl.OCCN1CCN(CCCNc2cccc3ccccc23)CC1 [Compound 6, 2-(4-(3-(naphthalen-1-ylamino)propyl)piperazin-1-yl)ethanol trihydrochloride] | 10 | 20 | 100 | 101 ± 1 | 93 ± 2 |
| Cl.Cl.Cl.OCCN1CCN(CCCNc2ccccc2)CC1 [Compound 5, 2-(4-(3-(phenylamino)propyl)piperazin-1-yl)ethanol trihydrochloride] | 10 | 30 | 200 | 98 ± 4 | 98 ± 3 |
| Cl.Cl.OC(CNc1ccccc1)CNc1ccccc1 [Compound 9, 1,3-bis(phenylamino)propan-2-ol dihydrochloride] |  |  |  | 104 ± 5 | 79 ± 11 |
| Cc1cc(OCC(O)CN2CCN(CCO)CC2)ccc1Cl.Cl.Cl (centres unmarked) [Compound 4, 1-(4-chloro-3-methylphenoxy)-3-(4-(2-hydroxyethyl)piperazin-1-yl)propan-2-ol dihydrochloride] | > 12 | 50 | 100 | 105 ± 5 | 89 ± 1 |
| Cl.Cl.Cl.OCCN1CCN(CC(O)CNc2ccccc2)CC1 (centres unmarked) [Compound 10, 1-(phenylamino]-3-[4-(2-hydroxyethyl)piperazin-1-yl)propan-2-ol trihydrochloride] | > 12 | 30 | 650 | 108 ± 7 | 95 ± 4 |
| COc1ccc(NCCCN2CCN(CCO)CC2)cc1.Cl.Cl.Cl [Compound 7, 2-(4-(3-((4-methoxyphenyl)amino)propyl)piperazin-1-yl)ethanol trihydrochloride] | 9 | 0 | 200 | 100 ± 5 | 96 |
